In patent US20110028401A1, “CRIPTO BLOCKING MOLECULES AND THERAPEUTIC USES THEREOF” (CONSIGLIO NAZIONALE DELLE RICERCHE, priority 2009, published 2011):

Legend:
wild-type EBs = experiment: QRT-PCR of cardiac and neuronal markers in EBs; assay type: cell-based, mouse; settings: 25 μM peptide, 13 day-old EBs
Protocol: Total RNAs from 13 day-old EBs was extracted with TRIzol kit (Life Technologies Inc.) according to manufacturer's instructions. One microgram of total RNA was used for cDNA synthesis with SuperScript II reverse transcriptase (Life Technologies Inc.) and random hexamers. Quantitative Real time PCR was performed using SYBR Green PCR master mix (EuroClone), according to manufacturer's instructions. The primers used are described in Table S2.

Cripto protein = biological target: T1, Cripto protein (Mus musculus, UniProt P51865); experiment: ELISA binding of recombinant Cripto to plate-coated peptide; settings: peptide coated at 50 μM; Cripto 50 to 200 ng/ml
T1 construct: made in house
Protocol: To evaluate the binding of Cripto BP to either Cripto or ALK-4 receptor, BP or control peptides (CP; 50 μM) were coated on the surface of a 96-well microtiter plate and incubated over night at 4° C. Wells were washed five times with PBS Tween (PBT) and the aspecific sites blocked for 3 h at RT with 1% Bovine Serum Albumin (BSA) in PBS, 180 μL/well. Wells were washed as above, and the recombinant form of either ALK-4-humanFc chimeric receptor or Cripto protein in PBT were added at the indicated concentrations and incubated for 1 h at 37° C. followed by 1 hr at RT. After washing with PBT, to evaluate the binding of Cripto to 26-23-23, rabbit anti-Cripto IgG (6 μg/ml) were added to the plates and incubated 1 h at 37° C. and 1 hr at RT. After washing in PBT, a goat anti-rabbit […] (Santa Crutz) was added to the plate (0.3 μg/ml) and incubated 1 h at RT. Finally, the plate was developed as reported above. To evaluate the binding of ALK4 to 26-23-23, the extracellular domain of ALK-4 receptor fused to human Fc (R&D Systems) was added at the indicated concentrations and a goat anti-human Fc (Jackson ImmunoResearch; 1:1000) was used.

Parkinsonian rats = experiment: Amphetamine-induced rotational behaviour of ESC-grafted Parkinsonian rats; assay type: in vivo, rat; settings: for improvement in amphetamine-induced rotations: pre-treated ESCs + peptide infusion
Excerpt: Thirty-seven adult male Sprague Dawley rats (250-350 g; from ARC, Australia) were housed and treated according to the guidelines of the Australian and Howard Florey Institute animal ethics committee (07-030). Animals received unilateral stereotaxic injections of 6-OHDA into the substantia nigra pars compacta (SNpc) to create a complete lesion of the midbrain DA neurons, as previously described^29. Lesioned animals were selected for transplantation based on their response to amphetamine induced rotational behaviour as previously described^29. Animals making greater than 6 rotations/min (lesion greater than 80%) were selected for grafting.
Two days prior to grafting animals began cyclosporine-A immune suppression (10 mg/kg). Fourteen days post-lesioning selected animals (determined by behavioural rotations) were again anesthetized and stereotaxically injected with 1 μl of cell suspension at each of the 4 sites as previously described^29. Stereotaxic coordinates of 1st & 2nd Injection (from bregma): anterior 0.2 mm, lateral 3.0 mm, ventral 4.5 and 5.0 mm; 3rd & 4th Injection, anterior 1.0 mm, lateral 2.5 mm, ventral 4.5 and 5.0 mm; incisor bar 0 mm^57). ESCs were differentiated as outlined in FIG. 7a. In brief, ESC colonies were dissected away from the stromal feeder layer and dissociated using collagenase/dispase with agitation (700 μg/ml, Roche, for 20 min, 80 rpm). Cells were subsequently resuspended at a density of 3,000 cells/μl ready for grafting. Five rats received Sham injections (4 μl N2 media, 1 μl/site), 16 rats received a total of 12,000 ESCs (4×1 μl grafts) pre-treated with the Control peptide (of which 9 of these animals also received infusion of the Control peptide) and a further 16 rats received grafts pretreated with the Cripto blocking peptide (9 animals receiving infusion of the Cripto BP).
The peptide infusion was performed by implantation of a cannula into the striatum (Alzet brain infusion kit) connected to a subcutaneously placed osmotic minipump (Alzet) prefilled with either CP or Cripto BP. Implantation was performed at the same time as the cell grafting. Cannula coordinates: anterior 0.5 mm, lateral 1.5 mm, ventral 5.0 mm; incisor bar 0 mm^57. The osmotic pump was capable of continuously delivering the peptide over a 3 weeks period (75 μM, 0.25 μl/hr) upon which time the animals were briefly anaesthetized with isoflurane and the pump removed through a small incision over the scapular region.

Mouse ESC = experiment: In vitro dopamine and DOPAC levels by HPLC after KCl; assay type: cell-based; settings: 14 days in vitro
Protocol: Dopamine release and turnover was determined in vitro using reverse phase high performance liquid chromatography (HPLC). Mouse ESC were differentiated in a 12 well plate according to the methodology depicted in FIG. 7(a), in the presence of either the Control peptide of Cripto BP. After 14 days in vitro, media was replaced with 200 ul of N2 media supplemented with 56 mM KCl for 30 min. The media was then collected and stabilized with 20 ul of buffer containing 0.4 M perchloric acid containing 7.9 mM sodium metabisulphate and 1.34 mM disodium EDTA. On the day of analysis the samples were centrifuged and the supernatant transferred to HPLC vials and placed in an autosampler for injection onto the HPLC. The HPLC consisted of a LC-20AT pump (Shimadzu), SIL-20A Autosampler (Shimadzu) and C18 reverse phase column (Bio-Rad, Hercules, USA). Detection was via a 3 mm VT-03 flow cell with glassy carbon working electrode (Antec Leyden) and Decade II Electrochemical Detector (Antec Leyden). The mobile phase consisted of 17% v/v methanol in purified deionized water containing 70 mM KH2PO4, 0.5 mM EDTA and 8.0 mM sulfonic acid, pH 3.0 and was run at a flow rate of 0.5 ml/min. DA turnover was expressed as the concentration of DOPAC to DA [DOPAC/DA]. Analysis was performed on triplicate wells on three independent differentiation experiments.

[1] = 56 mM KCl 30 min, compared to Control peptide

T1 sequence (P51865 18-156 limits assumed): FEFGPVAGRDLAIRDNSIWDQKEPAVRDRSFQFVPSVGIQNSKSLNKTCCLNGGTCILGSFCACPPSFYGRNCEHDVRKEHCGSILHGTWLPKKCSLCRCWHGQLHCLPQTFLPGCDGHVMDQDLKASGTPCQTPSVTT

Compound: C[S+]([O-])CCC(N)C(=O)N[C@@H](CSCc1ccccc1)C(=O)N[C@@H](CSCc1ccccc1)C(=O)N[C@@H](CCCCNC(=O)[C@H](CSCc1ccccc1)NC(=O)[C@H](CSCc1ccccc1)NC(=O)[C@@H](N)CC[S+](C)[O-])C(=O)N[C@@H](CCCCNC(=O)[C@H](CCCCNC(=O)[C@H](CSCc1ccccc1)NC(=O)[C@H](CSCc1ccccc1)NC(=O)[C@@H](N)CC[S+](C)[O-])NC(=O)[C@H](CSCc1ccccc1)NC(=O)[C@H](CSCc1ccccc1)NC(=O)[C@@H](N)CC[S+](C)[O-])C(=O)NCC(=O)O (some centres unmarked) [Cripto BP]
- expression of cardiac specific marker MLc2v (wild-type EBs): reduced
- expression of midbrain dopaminergic neuron markers (Pitx3, Wnt5a, Shh, TH, DAT) (wild-type EBs): showed expression of markers characteristic of developing midbrain dopaminergic neurons
- expression of pan neuronal marker NFM (wild-type EBs): induced
- binding of recombinant Cripto to immobilized peptide (Cripto protein): specifically recognized the immobilized Cripto BP, in a dose-dependent manner
- functional improvement in rotational behaviour compared to shams (Parkinsonian rats; 12,000 ESCs pre-treated, without infusion): significant reductions in amphetamine induced rotational behaviour as early as week 2 post-grafting
- improvement in amphetamine-induced rotations (Parkinsonian rats): significantly improved functional recovery
- improvement in amphetamine-induced rotations (Parkinsonian rats; mean±SD): 69.6±8.4%
- reduction in amphetamine induced rotational behaviour (Parkinsonian rats; pre-treated ESCs without infusion, 8 weeks postgrafting, mean±SD): 66.2±8.4%
- KCl-evoked release of DOPAC (Mouse ESC; [1]): significantly increases
- KCl-evoked release of dopamine (Mouse ESC; [1]): significantly increases
- dopamine turnover (ratio of DOPAC to DA) (Mouse ESC): able to utilize DA
